Laboratory results: paper doi:10.1101/2025.01.28.635346v1 (bioRxiv, 2025)
Bridge positions count the residues as written; N and C are the ends. Side chains are listed from the residue outwards. Peptide text beside a SMILES is read from it. * marks the point of attachment. Butanoyl(4-(4-I-phenyl)) = O=C(CCCc1ccc(I)cc1)*; PEG2 = NCCOCCOCCC(=O)O

Tests used:
[1] = Plasma stability, mouse plasma; type: in vitro ADME
GR = biological target: T1, GR (Homo sapiens, UniProt P04150); assay: Safetyscan47 NHR Protein Interaction, Antagonist; type: cell-based; details: for Emax: read-out: Max Response
T1 sequence (P04150 1-777): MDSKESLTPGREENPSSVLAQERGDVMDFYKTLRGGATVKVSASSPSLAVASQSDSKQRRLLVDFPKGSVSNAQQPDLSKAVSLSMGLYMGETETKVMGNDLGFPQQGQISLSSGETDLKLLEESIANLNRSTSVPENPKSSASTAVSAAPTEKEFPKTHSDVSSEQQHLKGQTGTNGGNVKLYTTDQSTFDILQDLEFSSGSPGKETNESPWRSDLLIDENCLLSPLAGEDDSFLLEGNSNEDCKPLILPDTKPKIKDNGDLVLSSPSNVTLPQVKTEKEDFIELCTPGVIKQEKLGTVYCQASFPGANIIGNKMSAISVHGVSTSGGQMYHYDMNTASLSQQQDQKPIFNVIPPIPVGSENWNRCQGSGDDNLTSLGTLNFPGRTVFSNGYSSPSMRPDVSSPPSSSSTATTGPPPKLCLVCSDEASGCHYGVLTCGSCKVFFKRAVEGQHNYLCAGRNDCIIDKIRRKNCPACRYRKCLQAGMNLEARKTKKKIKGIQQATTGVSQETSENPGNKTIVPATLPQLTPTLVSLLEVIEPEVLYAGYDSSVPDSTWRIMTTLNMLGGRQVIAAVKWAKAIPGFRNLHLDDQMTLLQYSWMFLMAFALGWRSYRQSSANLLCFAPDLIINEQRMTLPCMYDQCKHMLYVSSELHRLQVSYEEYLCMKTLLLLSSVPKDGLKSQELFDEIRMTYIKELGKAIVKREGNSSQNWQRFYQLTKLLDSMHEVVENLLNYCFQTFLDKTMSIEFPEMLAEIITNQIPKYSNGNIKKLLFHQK

CHRM1 = biological target: T2, CHRM1 (Homo sapiens, UniProt P11229); assay: Safetyscan47 GPCR Calcium Flux, Antagonist; type: cell-based; details: for Emax: read-out: Max Response
T2 sequence (P11229 1-460): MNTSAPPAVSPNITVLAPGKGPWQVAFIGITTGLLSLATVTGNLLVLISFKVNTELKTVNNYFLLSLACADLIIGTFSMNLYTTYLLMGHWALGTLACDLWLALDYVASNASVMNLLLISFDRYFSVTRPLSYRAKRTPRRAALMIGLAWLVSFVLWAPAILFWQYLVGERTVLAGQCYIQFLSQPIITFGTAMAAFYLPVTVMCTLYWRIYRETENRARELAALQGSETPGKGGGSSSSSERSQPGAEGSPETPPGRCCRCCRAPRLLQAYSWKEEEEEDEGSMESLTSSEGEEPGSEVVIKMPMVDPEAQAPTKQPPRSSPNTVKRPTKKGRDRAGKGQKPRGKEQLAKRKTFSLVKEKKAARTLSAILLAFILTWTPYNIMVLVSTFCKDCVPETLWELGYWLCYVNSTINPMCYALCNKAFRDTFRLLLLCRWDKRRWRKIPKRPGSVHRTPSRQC

CHRM3 = CHRM3 (Homo sapiens, UniProt P20309); assay: Safetyscan47 GPCR Calcium Flux, Antagonist; type: cell-based; details: for Emax: read-out: Max Response
CNR2 = CNR2 (Homo sapiens, UniProt P34972); assay: Safetyscan47 GPCR cAMP, Antagonist; type: cell-based; details: for Emax: read-out: Max Response
nAChR(a4/b2) = nAChR(a4/b2) (Homo sapiens, UniProt P17787+P43681); assay: Safetyscan47 Ion Channel, Opener; type: cell-based; details: for Emax: read-out: Max Response
[2] = Hepatocyte stability, cryopreserved human hepatocytes; type: in vitro ADME
ADRB1 = ADRB1 (Homo sapiens, UniProt P08588); assay: Safetyscan47 GPCR cAMP, Antagonist; type: cell-based; details: for Emax: read-out: Max Response
CNR1 [3] = biological target: T3, CNR1 (Homo sapiens, UniProt P21554); assay: Safetyscan47 GPCR cAMP, Agonist; type: cell-based; details: for Emax: read-out: Max Response
NET = NET (Homo sapiens, UniProt P23975); assay: Safetyscan47 Transporter, Blocker; type: cell-based; details: for Emax: read-out: Max Response
integrin αvβ3 = integrin αvβ3 (Homo sapiens, UniProt P05106+P06756); assay: ELISA competition assay, integrin αvβ3; type: binding
CNR1 [4] = biological target: T3, CNR1; assay: Safetyscan47 GPCR cAMP, Antagonist; type: cell-based; details: for Emax: read-out: Max Response
[5] = Pharmacokinetics in female Sprague-Dawley rats; type: in vivo, rat
[6] = Solubility and aggregation; type: physicochemical
[7] = female, Sprague-Dawley, rat, plasma, 30 mg/kg
[8] = female, Sprague-Dawley, rat, plasma, iv, 30 mg/kg

## CC[C@H](C)[C@H](NC(=O)[C@H](CC(C)C)NC(=O)[C@H](CC(=O)O)NC(=O)CNC(=O)[C@H](CCCNC(=N)N)NC(=O)[C@@H](NC(=O)[C@H](Cc1ccccc1)NC(=O)[C@H](Cc1ccc(O)cc1)NC(=O)[C@@H]1CCC(=O)NCC(=O)NCC(=O)N[C@@H](CCCNC(=N)N)C(=O)NCC(=O)N[C@@H](Cc2c[nH]cn2)C(=O)N[C@@H](C(C)C)C(=O)N2CCC[C@H]2C(=O)N1)C(C)C)C(=O)N[C@@H](CO)C(=O)N[C@@H](Cc1ccccc1)C(=O)N[C@@H](Cc1ccc(O)cc1)C(=O)N[C@@H](CCCCN)C(=O)O [lassotide 36] (GGRGHVPEYFVRGDLISFYK-OH; lactam N-8)
[1]
  half-life at 2 μM: 5.1 h
  remaining at 0.5 h, 2 μM: 88.7%
  remaining at 4 h, 2 μM: 56.1%
GR
  IC50: > 45 µM
  Emax: 0%
CHRM1
  IC50: > 45 µM
  Emax: 8.3%
CHRM3
  IC50: > 45 µM
  Emax: 3.06%
CNR2
  IC50: > 45 µM
  Emax: 1.15%
nAChR(a4/b2)
  EC50: > 45 µM
  Emax: 11%
[2]
  half-life at 2 μM: 4.1 h
  remaining at 1 h, 2 μM: 87.9%
  remaining at 3 h, 2 μM: 57.8%
ADRB1
  IC50: > 45 µM
  Emax: 15.6%
CNR1 [3]
  EC50: > 45 µM
  Emax: 1.38%
NET
  IC50: > 45 µM
  Emax: 0.35%
Integrin αvβ3
  IC50: 0.343 µM
CNR1 [4]
  IC50: > 45 µM
  Emax: 9.79%

## CC[C@H](C)[C@H](NC(=O)[C@H](CC(C)C)NC(=O)[C@H](CC(=O)O)NC(=O)CNC(=O)[C@H](CCCNC(=N)N)NC(=O)[C@@H](NC(=O)[C@H](Cc1ccccc1)NC(=O)[C@H](Cc1ccc(O)cc1)NC(=O)[C@@H]1CCC(=O)NCC(=O)NCC(=O)N[C@@H](CCCNC(=N)N)C(=O)NCC(=O)N[C@@H](Cc2c[nH]cn2)C(=O)N[C@@H](C(C)C)C(=O)N2CCC[C@H]2C(=O)N1)C(C)C)C(=O)N[C@@H](CO)C(=O)N[C@@H](Cc1ccccc1)C(=O)N[C@@H](Cc1ccc(O)cc1)C(=O)N[C@@H](CCCCNC(=O)CCOCCOCCNC(=O)CCCc1ccc(I)cc1)C(=O)O [lassotide 47] (GGRGHVPEYFVRGDLISFYK([PEG2-Butanoyl(4-(4-I-phenyl))])-OH; lactam N-8)
[1]
  remaining at 0.5 h, 2 μM: 86.3%
  remaining at 4 h, 2 μM: 86.9%
GR
  IC50: > 45 µM
  Emax: 0%
CHRM1
  IC50: > 45 µM
  Emax: 0%
[5]; [7]
  AUC(0-inf): 2740 µg·h/mL
  C0: 441 µg/mL
  Cmax: 369 µg/mL
[5]; [8]
  AUC(0-t): 2360 µg·h/mL
  Tmax: 0.2 h
  Vd: 0.1 L/kg
  clearance: 0.2 mL/min/kg
  half-life: 8.5 h
[5]; rat 30 mg/kg, animal 1M001
  AUCINF: 2670 µg·h/mL
  AUClast: 2310 µg·h/mL
  C0: 383 µg/mL
  CL: 0.187 mL/min/kg
  Cmax: 327 µg/mL
  Vz: 0.133 L/kg
  t1/2: 8.2 h
[5]; rat 30 mg/kg, animal 1M002
  AUCINF: 2370 µg·h/mL
  AUClast: 2110 µg·h/mL
  C0: 370 µg/mL
  CL: 0.211 mL/min/kg
  Cmax: 336 µg/mL
  Vz: 0.144 L/kg
  t1/2: 7.9 h
[5]; rat 30 mg/kg, animal 1M003
  AUCINF: 3180 µg·h/mL
  AUClast: 2650 µg·h/mL
  C0: 571 µg/mL
  CL: 0.157 mL/min/kg
  Cmax: 443 µg/mL
  Vz: 0.127 L/kg
  t1/2: 9.3 h
CHRM3
  IC50: > 45 µM
  Emax: 0.91%
CNR2
  IC50: > 45 µM
  Emax: 2.1%
nAChR(a4/b2)
  EC50: > 45 µM
  Emax: 0%
[2]
  remaining at 1 h, 2 μM: 85.3%
  remaining at 3 h, 2 μM: 84.8%
ADRB1
  IC50: > 45 µM
  Emax: 40%
CNR1 [3]
  EC50: > 45 µM
  Emax: 29.1%
NET
  IC50: > 45 µM
  Emax: 0%
Integrin αvβ3
  IC50: 1 µM
CNR1 [4]
  IC50: > 45 µM
  Emax: 0%
[6]; DMSO (text: also formulations containing 10-20% DMSO and PEG)
  Solubility in DMSO: > 200 mg/mL
[6]; acetate buffer, pH 4.5, aqueous buffer
  solubility: ≥ 30 mg/mL
